Source: US9266922B2, “Antigen peptide and uses thereof” (priority 2011, dated 2016)
Where two headings read alike, the source gives them in different places. Residues, ends and D or L forms follow the SMILES beside them.

Experiments:
HLA-A*0201 [1] = molecular target: T1, HLA-A*0201 (Homo sapiens, UniProt P04439, D140Y/D185E/D98H/E176V/E277Q/G131W/G231S/I119V/I121R/I166T/I218V/L300P/L318F/N151K/N90K/P208A/P217A/Q86G/Q94H/R138H/R169H/T345S); assay: biochemical; format: binding
[2] = molecular target: T2, HLA A*0201 on CEM.T2 cell line (Homo sapiens, UniProt P04439, D140Y/D185E/D98H/E176V/E277Q/G131W/G231S/I119V/I121R/I166T/I218V/L300P/L318F/N151K/N90K/P208A/P217A/Q86G/Q94H/R138H/R169H/T345S); assay: Cellular dissociation assay on CEM.T2 cells; format: cell-based; settings: after Brefeldin A 1 h and 3 h in serum-free RPMI at 37° C. (4 h)
T2 construct: This cell line expresses HLA A*0201 but is deficient for TAP transporter; endogenous in cells; host or cells: CEM.T2 (T2) cell line
Protocol: Cellular Dissociation Assay
After HLA-A2*0201 stabilization with peptides at 37° C. for 4 h, T2 cells were incubated for 1 h, in serum-free RPMI containing Brefeldin A (10 μg/ml), an inhibitor of the transport of secretory and lysosomal proteins [G. J. Strous et al., 1993]. After 3 washes, T2 cells were incubated for 3 h in serum-free RPMI at 37° C. Binding was then measured by FACS and after 4 h incubation. Percentage of Residual Binding (% RB) was calculated as follows: […]

[3] = molecular target: T2, HLA A*0201 on CEM.T2 cell line; assay: Cellular binding assay, HLA stabilization on CEM.T2 cells; format: cell-based; settings: for CEM.T2 % Binding: 100 μM peptide, 37° C. for 4 h, FACS anti HLA-A2, relative to HBV positive control peptide
Protocol: The CEM.T2 cell line (T2) is defective in the processing of proteins for presentation by MHC class 1 molecules. This cell line expresses HLA A*0201 but is deficient for TAP transporter. T2 is classically used to assess the Peptide/HLA-A*0201 Complex Stability[H. W. Nijman et al., 1993]
For HLA-A2*0201 stabilization, T2 cells (2×10^5/well) were incubated in serum-free RPMI (Gibco®-France) with 100 μM of selected peptide, at 37° C. for 4 h. Cells were washed two times with PBS supplemented with 1% BSA and stained with fluorescein isothiocyanate-conjugated anti HLA-A2 (Clone BB7.2) (BD Bioscience Pharmingen-France-) at 4° C. for 45 min. After 3 washes, cells were fixed in PBS supplemented with 2% paraformaldehyde and analyzed by FACS (FACScan, BD Bioscience). The percentage of peptide binding was calculated as follows: % Binding={(MFI peptide sample−MFI Neg control)/(MFI Pos control−MFI Neg control)}×100
Negative control was done without peptide.

HLA-A*0201 [4] = molecular target: T1, HLA-A*0201; assay: iTOPIA EDS MHC peptide binding assay; settings: HLA-A*0201 monomer, relative to positive control peptide, 21° C. for 18 h
From the text: MHC peptide binding assay using iTOPIA EDS
Microtiter 96 well plates containing HLA class I MHC monomer loaded with the human β2-microglobulin and a “placeholder” peptide were used to evaluate peptide binding, affinity, and off-rate.
The 502 nectin4 nonapeptides were first evaluated for their ability to bind to each MHC molecule in the peptide binding assay. In this assay, the placeholder peptides were stripped from the MHC class I monomer complexes coated on plastic, which leaves the MHC class I heavy chain available as a binding partner for candidate peptides in the presence of human β2-microglobulin.
Peptide binding was performed at 21° C. for 18 h. Revelation was done using an anti HLA-ABC-FITC mAb that binds to refolded MHC complex conformation. The relative fluorescent intensity was read using a fluorimeter (Molecular Devices, SpectraMax Gemini, Sunnyvale, Calif., USA).
Peptides with a binding>30% of the positive control peptide were selected as “binder” and subsequently analyzed for affinity (ED50) and off-rate (T1/2).

HLA-A*0201 [5] = molecular target: T1, HLA-A*0201; assay: iScore calculation (iTOPIA system software); settings: multiparametric score of binding, off-rate and affinity
[6] = peptide concentration giving 50% of optimal binding, 10^−4 to 10^−9 M, 21° C. for 18 h, read-out: Affinity (ED50)

| HLA-A*0201 class I level on T2 cells ([3]; flow cytometry, FIG. 3A and 3B) | Molecule | EC50 (HLA-A*0201 [1]; [6]) | CEM.T2 % Residual Binding [2] | CEM.T2 % Binding [3] | % Binding (HLA-A*0201 [4]) | iScore (HLA-A*0201 [5]) | EC50 (HLA-A*0201 [1]; FIG. 2A, peptide concentration 10^−4 to 10^−9 M, read-out: estimated dose to reach 50% maximal binding (ED50)) |
| --- | --- | --- | --- | --- | --- | --- | --- |
| – | CC[C@H](C)[C@H](NC(=O)[C@H](Cc1c[nH]cn1)NC(=O)[C@H](Cc1c[nH]c2ccccc12)NC(=O)[C@H](CC(C)C)NC(=O)[C@H](CC(N)=O)NC(=O)[C@H](CCC(N)=O)NC(=O)[C@@H](N)CC(=O)O)C(=O)NCC(=O)N[C@@H](CCCNC(=N)N)C(=O)O [Peptide 255] | 500 nM | 0% | 6% | 62% | 0.539 | – |
| – | CC(C)[C@H](NC(=O)CNC(=O)[C@@H](NC(=O)[C@@H](NC(=O)[C@@H](NC(=O)[C@@H](NC(=O)[C@H](CO)NC(=O)[C@H](C)NC(=O)[C@@H](N)CO)C(C)C)C(C)C)C(C)C)C(C)C)C(=O)O [Peptide 347] (H-SASVVVVGV-OH; N-terminus and C-terminus assumed) | 200 nM | 0% | 40% | 64% | 0.708 | – |
| – | CC[C@H](C)[C@H](NC(=O)[C@@H](N)C(C)C)C(=O)N[C@@H](C)C(=O)N[C@@H](C)C(=O)N[C@@H](CC(C)C)C(=O)N[C@@H](CC(C)C)C(=O)N[C@@H](Cc1ccccc1)C(=O)N[C@@H](CS)C(=O)N[C@@H](CC(C)C)C(=O)O [Peptide 355] (H-VIAALLFCL-OH; N-terminus and C-terminus assumed) | 30 nM | 24% | 18% | 59% | 0.888 | – |
| – | CC(C)C[C@H](N)C(=O)N[C@H](C(=O)N[C@@H](CO)C(=O)N[C@@H](C)C(=O)N[C@@H](CO)C(=O)N[C@H](C(=O)N[C@H](C(=O)N[C@H](C(=O)N[C@H](C(=O)O)C(C)C)C(C)C)C(C)C)C(C)C)C(C)C [Peptide 345] (H-LVSASVVVV-OH; N-terminus and C-terminus assumed) | 60 nM | 0% | 11% | 51% | 0.626 | – |
| – | CC(C)C[C@H](NC(=O)[C@H](C)N)C(=O)N[C@@H](CC(C)C)C(=O)N[C@@H](Cc1ccccc1)C(=O)N[C@@H](CS)C(=O)N[C@@H](CC(C)C)C(=O)N[C@@H](CC(C)C)C(=O)N[C@H](C(=O)N[C@H](C(=O)O)C(C)C)C(C)C [Peptide 358] (H-ALLFCLLVV-OH; N-terminus and C-terminus assumed) | 200 nM | 26% | 26% | 53% | 0.71 | – |
| – | CC(C)C[C@H](NC(=O)[C@H](C)NC(=O)[C@H](C)N)C(=O)N[C@@H](CC(C)C)C(=O)N[C@@H](Cc1ccccc1)C(=O)N[C@@H](CS)C(=O)N[C@@H](CC(C)C)C(=O)N[C@@H](CC(C)C)C(=O)N[C@H](C(=O)O)C(C)C [Peptide 357] (H-AALLFCLLV-OH; N-terminus and C-terminus assumed) | 100 nM | 18% | 15% | 56% | 0.619 | – |
| – | CC(C)C[C@H](NC(=O)[C@H](Cc1c[nH]cn1)NC(=O)[C@H](Cc1ccccc1)NC(=O)[C@H](CCC(=O)O)NC(=O)[C@H](CO)NC(=O)[C@@H](NC(=O)[C@@H](NC(=O)[C@H](C)N)C(C)C)[C@@H](C)O)C(=O)N[C@H](C(=O)O)C(C)C [Peptide 203] (H-AVTSEFHLV-OH; N-terminus and C-terminus assumed) | 400 nM | 0% | 48% | 64% | 0.533 | – |
| – | CC(C)C[C@H](NC(=O)CNC(=O)[C@H](Cc1ccc(O)cc1)NC(=O)[C@H](CCCCN)NC(=O)[C@H](CO)NC(=O)[C@H](Cc1c[nH]cn1)NC(=O)[C@H](CC(C)C)NC(=O)[C@H](CC(C)C)NC(=O)[C@H](C)N)C(=O)O [Peptide 80] (H-ALLHSKYGL-OH; N-terminus and C-terminus assumed) | 1000 nM | – | – | 87% | 0.815 | ~100 nM |
| – | CSCC[C@H](NC(=O)[C@H](C)N)C(=O)N[C@@H](CC(C)C)C(=O)N[C@@H](CCCCN)C(=O)N[C@@H](CS)C(=O)N[C@@H](CC(C)C)C(=O)N[C@@H](CO)C(=O)N[C@@H](CCC(=O)O)C(=O)NCC(=O)O [Peptide 266] (H-AMLKCLSEG-OH; N-terminus and C-terminus assumed) | 700 nM | 39% | 31% | 74% | 0.667 | – |
| – | CC[C@H](C)[C@H](NC(=O)[C@@H](NC(=O)CN)C(C)C)C(=O)N[C@@H](C)C(=O)N[C@@H](C)C(=O)N[C@@H](CC(C)C)C(=O)N[C@@H](CC(C)C)C(=O)N[C@@H](Cc1ccccc1)C(=O)N[C@@H](CS)C(=O)O [Peptide 354] (H-GVIAALLFC-OH; N-terminus and C-terminus assumed) | 90 nM | 0% | 10% | 61% | 0.845 | – |
| does not increase HLA level on T2 cells | 122: nectin4 nonapeptide with a low iScore; the number represents where the peptide starts in the protein sequence (EGEYECRVS; UniProt Q96NY8 122-130, looked up, fragment) [Peptide 122] | – | – | – | – | low | – |
| – | CC[C@H](C)[C@H](N)C(=O)N[C@@H](CC(C)C)C(=O)N[C@@H](Cc1c[nH]cn1)C(=O)N[C@H](C(=O)N[C@@H](CO)C(=O)N[C@@H](Cc1ccccc1)C(=O)N[C@@H](CC(C)C)C(=O)N[C@@H](C)C(=O)N[C@@H](CCC(=O)O)C(=O)O)C(C)C [Peptide 239] (H-ILHVSFLAE-OH; N-terminus and C-terminus assumed) | 200 nM | 0% | 10% | 61% | 0.51 | – |
| – | CC(C)C[C@H](NC(=O)[C@H](CCCNC(=N)N)NC(=O)[C@H](C)NC(=O)[C@H](CCC(N)=O)NC(=O)[C@@H](N)Cc1ccccc1)C(=O)N[C@@H](CCCNC(=N)N)C(=O)N[C@@H](CC(C)C)C(=O)N[C@@H](CCCNC(=N)N)C(=O)N[C@H](C(=O)O)C(C)C [Peptide 137] (H-FQARLRLRV-OH; N-terminus and C-terminus assumed) | – | 72% | 30% | 69% | 0.66 | – |
| – | CC[C@H](C)[C@H](NC(=O)[C@@H](NC(=O)CNC(=O)[C@@H](NC(=O)[C@@H](NC(=O)[C@@H](N)C(C)C)C(C)C)C(C)C)C(C)C)C(=O)N[C@@H](C)C(=O)N[C@@H](C)C(=O)N[C@@H](CC(C)C)C(=O)O [Peptide 351, VVVGVIAAL] (H-VVVGVIAAL-OH; N-terminus and C-terminus assumed) | 30 nM | – | – | 58% | 0.784 | – |
